# Data from patent publication US8575197B2, “Pyrolinone derivative and pharmaceutical composition comprising the same” (Shionogi & Co., Ltd., priority 2008, dated 2013).
# Target: human P2X3 receptor (Homo sapiens (Human), UniProt P56373)
# Experiment: P2X3 receptor inhibition, ATP-evoked Fluo-3 calcium fluorescence (FDSS 3000)
# Format: cell-based
# Conditions: C6BU-1 cell transfected with human P2X3 receptor gene; ATP-evoked Fluo-3 fluorescence
# Outline: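 C6BU-1 cells stably transfected with human P2X3, loaded with 4 μM Fluo-3-AM for 1 h at 37 °C in HEPES buffer pH 7.5 with probenecid. Compound added 5 min before 40 nM ATP solution; fluorescence followed 3 min. IC50 from ratio of peak post-ATP to baseline fluorescence.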
# human P2X3 receptor, sequence (P56373 whole entry): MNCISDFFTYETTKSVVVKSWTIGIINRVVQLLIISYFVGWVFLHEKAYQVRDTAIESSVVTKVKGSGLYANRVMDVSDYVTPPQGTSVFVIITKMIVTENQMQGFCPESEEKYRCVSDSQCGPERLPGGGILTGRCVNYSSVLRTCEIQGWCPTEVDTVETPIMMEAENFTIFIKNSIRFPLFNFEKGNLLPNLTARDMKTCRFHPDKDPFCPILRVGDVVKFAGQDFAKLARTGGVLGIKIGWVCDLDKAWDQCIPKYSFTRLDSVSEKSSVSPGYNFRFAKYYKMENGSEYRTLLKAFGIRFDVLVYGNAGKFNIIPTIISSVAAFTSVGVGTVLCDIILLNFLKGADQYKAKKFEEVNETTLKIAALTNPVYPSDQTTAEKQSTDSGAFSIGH
row,Structure (SMILES),IC50 [nM]
1,COCc1ccccc1[C@H]1C(C(=O)C(C)C)=C(O)C(=O)N1c1ccc(-c2ccsc2)cc1 [Compound I-254],511
2,COCc1ccccc1[C@@H]1C(C(=O)C(C)C)=C(O)C(=O)N1c1ccc(-c2ccsc2)cc1 [Compound I-255],8
3,COCCOc1ccccc1C1C(C(=O)C(C)C)=C(O)C(=O)N1c1ccc(-c2csc(C)c2)cc1 (centres unmarked) [Compound I-261],19
4,COCOc1ccccc1C1C(C(=O)C(C)C)=C(O)C(=O)N1c1ccc(-c2csc(C)c2)cc1 (centres unmarked) [Compound I-262],16
5,COCOc1ccccc1C1C(C(=O)C(C)C)=C(O)C(=O)N1c1ccc(-c2ccc(C)s2)cc1 (centres unmarked) [Compound I-264],14
6,COCc1ccccc1C1C(C(=O)C(C)C)=C(O)C(=O)N1c1ccc(-c2csc(C)c2)cc1 (centres unmarked) [Compound I-265],28
7,COCCOc1ncccc1C1C(C(=O)C(C)C)=C(O)C(=O)N1c1ccc(-c2ccc(C)s2)cc1 (centres unmarked) [Compound I-267],14
8,COCCOc1ncccc1C1C(C(=O)C(C)C)=C(O)C(=O)N1c1ccc(-c2csc(C)c2)cc1 (centres unmarked) [Compound I-268],32
9,COCCOc1ccccc1C1C(C(=O)C(C)C)=C(O)C(=O)N1c1ccc(-c2nc(C)no2)cc1 (centres unmarked) [Compound I-271],542
10,Cc1nc(-c2ccc(N3C(=O)C(O)=C(C(=O)C(C)C)C3c3ccccc3OCCO)cc2)no1 (centres unmarked) [Compound I-277],342
11,Cc1nc(-c2ccc(N3C(=O)C(O)=C(C(=O)CC(C)C)C3c3ccccc3OCCO)cc2)no1 (centres unmarked) [Compound I-278],366
12,COc1ccccc1[C@H]1C(C(=O)CC(C)C)=C(O)C(=O)N1c1ccc(-c2ccsc2)cc1 [Compound I-280],477
13,COCc1ccccc1C1C(C(=O)C(C)C)=C(O)C(=O)N1c1ccc(-c2ccccc2)cc1 (centres unmarked) [Compound I-282],472
14,COCc1ccccc1C1C(C(=O)C(C)C)=C(O)C(=O)N1c1ccc(-c2ccccc2)s1 (centres unmarked) [Compound I-283],144
15,COc1cccc(C2C(C(=O)C(C)C)=C(O)C(=O)N2c2ccc(-c3ccsc3)cc2)c1 (centres unmarked) [Compound I-284],300
16,CC(C)CC(=O)C1=C(O)C(=O)N(c2ccc(-c3ccsc3)cc2)C1c1ccccc1OC(F)F (centres unmarked) [Compound I-290],51
17,CC(C)CC(=O)C1=C(O)C(=O)N(c2ccc(-c3ccsc3)cc2)C1c1ccccc1C(F)(F)F (centres unmarked) [Compound I-292],127
18,CC(C)CC(=O)C1=C(O)C(=O)N(c2ccc(-c3ccsc3)cc2)C1c1ccccc1OC(C)C (centres unmarked) [Compound I-293],12
19,CC(C)C(=O)C1=C(O)C(=O)N(c2ccc(-c3ccon3)cc2)C1c1ccccc1OC(F)(F)F (centres unmarked) [Compound I-297],220
20,CC(C)Oc1ccccc1C1C(C(=O)C(C)C)=C(O)C(=O)N1c1ccc(-c2ccsc2)cc1 (centres unmarked) [Compound I-299],8

row,Structure (SMILES),IC50 [nM]
1,CC(C)C(=O)C1=C(O)C(=O)N(c2ccc(-c3ccsc3)cc2)C1c1ccccc1OC(F)F (centres unmarked) [Compound I-301],18
2,CC(C)C(=O)C1=C(O)C(=O)N(c2ccc(-c3ccsc3)cc2)C1c1ccccc1OC(F)(F)F (centres unmarked) [Compound I-302],34
3,COCCOc1ccccc1C1C(C(=O)CC(C)C)=C(O)C(=O)N1c1ccc(-c2ccc(C)s2)cc1 (centres unmarked) [Compound I-304],21
4,COCOc1ccccc1C1C(C(=O)CC(C)C)=C(O)C(=O)N1c1ccc(-c2ccc(C)s2)cc1 (centres unmarked) [Compound I-305],20
5,CC(C)CC(=O)C1=C(O)C(=O)N(c2ccc(-c3ccon3)cc2)C1c1ccccc1OC(F)F (centres unmarked) [Compound I-307],158
6,COCCOc1ccccc1C1C(C(=O)CC(C)C)=C(O)C(=O)N1c1ccc(-c2ccon2)cc1 (centres unmarked) [Compound I-309],182
7,COCOc1ccccc1C1C(C(=O)C(C)C)=C(O)C(=O)N1c1ccc(-c2noc(C)n2)cc1 (centres unmarked) [Compound I-311],121
8,Cc1nc(-c2ccc(N3C(=O)C(O)=C(C(=O)C(C)C)C3c3ccccc3OC(C)C)cc2)no1 (centres unmarked) [Compound I-312],54
9,Cc1nc(-c2ccc(N3C(=O)C(O)=C(C(=O)C(C)C)C3c3ccccc3OC(F)(F)F)cc2)no1 (centres unmarked) [Compound I-314],329
10,COCc1ccccc1C1C(C(=O)CC(C)C)=C(O)C(=O)N1c1ccc(-c2noc(C)n2)cc1 (centres unmarked) [Compound I-315],252
11,COCOc1ccccc1C1C(C(=O)CC(C)C)=C(O)C(=O)N1c1ccc(-c2noc(C)n2)cc1 (centres unmarked) [Compound I-316],130
12,Cc1nc(-c2ccc(N3C(=O)C(O)=C(C(=O)CC(C)C)C3c3ccccc3OC(C)C)cc2)no1 (centres unmarked) [Compound I-317],73
13,Cc1cc(-c2ccc(N3C(=O)C(O)=C(C(=O)C(C)C)C3c3ccccc3OC(F)F)cc2)cs1 (centres unmarked) [Compound I-321],70
14,COCc1ncccc1C1C(C(=O)CC(C)C)=C(O)C(=O)N1c1ccc(-c2ccsc2)cc1 (centres unmarked) [Compound I-324],109
15,COc1cc(F)ccc1C1C(C(=O)CC(C)C)=C(O)C(=O)N1c1ccc(-c2ccsc2)cc1 (centres unmarked) [Compound I-326],27
16,COc1ccccc1C1C(C(=O)CC(C)C)=C(O)C(=O)N1c1ccc(-c2ccc(C)s2)cc1 (centres unmarked) [Compound I-327],93
17,COC1=C(C(=O)CC(C)C)C(c2ccccc2OC)N(c2ccc(-c3ccc(C)s3)cc2)C1=O (centres unmarked) [Compound I-329],578
18,CC(C)CC(=O)C1=C(O)C(=O)N(c2ccc(-c3ccsc3)cc2)C1c1ccccc1OC(F)(F)F (centres unmarked) [Compound I-330],70
19,COc1ncccc1C1C(C(=O)C(C)C)=C(O)C(=O)N1c1ccc(-c2ccc(C)s2)cc1 (centres unmarked) [Compound I-332],281

# Continued by falling IC50, values first:
row,IC50 [nM],Structure (SMILES)
1,722,COc1ccc(CC(=O)C2=C(O)C(=O)N(c3ccc(-c4noc(C)n4)cc3)C2C2CCCCC2)cc1 (centres unmarked) [Compound I-331]
2,669,COCCOc1cccc(C2C(C(=O)C(C)C)=C(O)C(=O)N2c2ccc(-c3ccsc3)cc2)c1 (centres unmarked) [Compound I-286]
3,648,COc1ccc(C2C(C(=O)C(C)C)=C(O)C(=O)N2c2ccc(-c3ccsc3)cc2)cc1 (centres unmarked) [Compound I-285]
4,637,COCc1ccccc1C1C(C(=O)C(C)C)=C(O)C(=O)N1c1ccc(I)cc1 (centres unmarked) [Compound I-281]
5,491,COCCOc1ccccc1C1C(C(=O)CC(C)C)=C(O)C(=O)N1c1ccc(-c2nc(C)no2)cc1 (centres unmarked) [Compound I-273]
6,347,COc1ccccc1C1C(C(=O)C(C)C)=C(O)C(=O)N1c1ccc2sccc2c1 (centres unmarked) [Compound I-269]
7,337,COCc1ccccc1C1C(C(=O)C(C)C)=C(O)C(=O)N1c1ccc(-c2noc(C)n2)cc1 (centres unmarked) [Compound I-310]
8,328,Cc1nc(-c2ccc(N3C(=O)C(O)=C(C(=O)CC(C)C)C3c3ccccc3OC(F)F)cc2)no1 (centres unmarked) [Compound I-318]
9,320,Cc1nc(-c2ccc(N3C(=O)C(O)=C(C(=O)C(C)C)C3c3ccccc3OC(F)F)cc2)no1 (centres unmarked) [Compound I-313]
10,310,CC(C)CC(=O)C1=C(O)C(=O)N(c2ccc(-c3ccon3)cc2)C1c1ccccc1OCCO (centres unmarked) [Compound I-323]
11,274,COc1ncccc1C1C(C(=O)C(C)C)=C(O)C(=O)N1c1ccc(-c2csc(C)c2)cc1 (centres unmarked) [Compound I-320]
12,269,COCCOc1ccccc1C1C(C(=O)C(C)C)=C(O)C(=O)N1c1ccc(-c2ccon2)cc1 (centres unmarked) [Compound I-298]
13,222,Cc1nc(-c2ccc(N3C(=O)C(O)=C(C(=O)CC(C)C)C3c3ccccc3OC(F)(F)F)cc2)no1 (centres unmarked) [Compound I-319]
14,193,CC(C)CC(=O)C1=C(O)C(=O)N(c2ccc(-c3ccon3)cc2)C1c1ccccc1OC(F)(F)F (centres unmarked) [Compound I-308]
15,172,COCCOc1ccccc1C1C(C(=O)C(C)C)=C(O)C(=O)N1c1ccc(-c2noc(C)n2)cc1 (centres unmarked) [Compound I-275]
16,130,COc1ncccc1C1C(C(=O)CC(C)C)=C(O)C(=O)N1c1ccc(-c2ccsc2)cc1 (centres unmarked) [Compound I-291]

row,IC50 [nM],Structure (SMILES)
1,117,COCCOc1ccccc1C1C(C(=O)CC(C)C)=C(O)C(=O)N1c1ccc(-c2noc(C)n2)cc1 (centres unmarked) [Compound I-276]
2,114,CC(C)C(=O)C1=C(O)C(=O)N(c2ccc(-c3ccsc3)cc2)C1c1ccccc1C(F)(F)F (centres unmarked) [Compound I-300]
3,102,Cc1cc(-c2ccc(N3C(=O)C(O)=C(C(=O)C(C)C)C3c3ccccc3OC(F)(F)F)cc2)cs1 (centres unmarked) [Compound I-322]
4,65,Cc1ccc(-c2ccc(N3C(=O)C(O)=C(C(=O)CC(C)C)C3c3ccccc3OCCO)cc2)s1 (centres unmarked) [Compound I-328]
5,58,Cc1ccc(-c2ccc(N3C(=O)C(O)=C(C(=O)C(C)C)C3c3ccccc3OC(F)F)cc2)s1 (centres unmarked) [Compound I-333]
6,54,CC(C)CC(=O)C1=C(O)C(=O)N(c2ccc(-c3ccon3)cc2)C1c1ccccc1OC(C)C (centres unmarked) [Compound I-306]
7,37,COc1ccccc1C1C(C(=O)C(C)C)=C(O)C(=O)N1c1ccc(-c2csc(C)c2)cc1 (centres unmarked) [Compound I-257]
8,36,COc1ccc(C(=O)C2=C(O)C(=O)N(c3ccc(-c4ccsc4)cc3)C2C2COC(C)(C)OC2)cn1 (centres unmarked) [Compound I-288]
9,31,COCc1ccccc1C1C(C(=O)CC(C)C)=C(O)C(=O)N1c1ccc(-c2ccc(C)s2)cc1 (centres unmarked) [Compound I-303]
10,30,COc1ccccc1C1C(C(=O)C(C)C)=C(O)C(=O)N1c1ccc(-c2ccc(C)s2)cc1 (centres unmarked) [Compound I-259]
11,25,COCc1ccccc1C1C(C(=O)C(C)C)=C(O)C(=O)N1c1ccc(-c2ccc(C)s2)cc1 (centres unmarked) [Compound I-266]
12,24,Cc1ccc(-c2ccc(N3C(=O)C(O)=C(C(=O)C(C)C)C3c3ccccc3OCCO)cc2)s1 (centres unmarked) [Compound I-258]
13,23,Cc1cc(-c2ccc(N3C(=O)C(O)=C(C(=O)C(C)C)C3c3ccccc3OCCO)cc2)cs1 (centres unmarked) [Compound I-256]
14,18,COc1cc(F)ccc1C1C(C(=O)C(C)C)=C(O)C(=O)N1c1ccc(-c2ccsc2)cc1 (centres unmarked) [Compound I-325]
15,16,COc1ccccc1[C@@H]1C(C(=O)CC(C)C)=C(O)C(=O)N1c1ccc(-c2ccsc2)cc1 [Compound I-279]
16,8,COCCOc1ccccc1C1C(C(=O)C(C)C)=C(O)C(=O)N1c1ccc(-c2ccc(C)s2)cc1 (centres unmarked) [Compound I-263]
